In ChEMBL document CHEMBL1201862, “PubChem BioAssay data set” (2004):
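These data come from cells grown in 96-well plates and exposed to compound for 48 hours at five concentrations. GI50: concentration for 50% inhibition of growth.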 Calls of active or inactive are those of the source. No stated cut-off is given here; in the data, active = GI50 up to about 1.1 µM and inactive = higher.

Tests used:
Assay in all cases: NCI tumour cell line growth inhibition, 48 h
T47D = system: T47D
Hs-578T = system: Hs-578T
UO-31 = system: UO-31
KM12 = system: KM12
HL-60 = system: HL-60
OVCAR-4 = system: OVCAR-4
EKVX = system: EKVX
BT-549 = system: BT-549
CAKI-1 = system: CAKI-1
NCI-H522 = system: NCI-H522
SNB-75 = system: SNB-75
RXF 393 = system: RXF 393
UACC-257 = system: UACC-257
MDA-MB-231 = system: MDA-MB-231
CCRF-CEM = system: CCRF-CEM
HCT-15 = system: HCT-15
NCI/ADR-RES = system: NCI/ADR-RES
SR = system: SR
UACC-62 = system: UACC-62
LOX IMVI = system: LOX IMVI

| SMILES | GI50 (T47D) | GI50 (Hs-578T) | GI50 (UO-31) | GI50 (KM12) | GI50 (HL-60) | GI50 (OVCAR-4) | GI50 (EKVX) | GI50 (BT-549) | GI50 (CAKI-1) | GI50 (NCI-H522) | GI50 (SNB-75) | GI50 (RXF 393) | GI50 (UACC-257) | GI50 (MDA-MB-231) | GI50 (CCRF-CEM) | GI50 (HCT-15) [µM] | GI50 (NCI/ADR-RES) | GI50 (SR) | GI50 (UACC-62) | GI50 (LOX IMVI) |
| --- | --- | --- | --- | --- | --- | --- | --- | --- | --- | --- | --- | --- | --- | --- | --- | --- | --- | --- | --- | --- |
| Cc1cc(-c2nc3ccccc3s2)ccc1N | 0.0322 µM (active) | > 100 µM (inactive) | 6.92 µM (inactive) | 42.5 µM (inactive) | 15.7 µM (inactive) | 4.98 µM (inactive) | 26.6 µM (inactive) | 48.3 µM (inactive) | 43.7 µM (inactive) | 18.5 µM (inactive) | 35.3 µM (inactive) | 50.8 µM (inactive) | 81.5 µM (inactive) | 38.6 µM (inactive) | 9.44 µM (inactive) | 42.3 | 57.4 µM (inactive) | 25.6 µM (inactive) | 46.1 µM (inactive) | 31.6 µM (inactive) |
| Cc1cc(/N=C/c2ccc(F)cc2)n(-c2ccccc2)n1 | 27.2 µM (inactive) | > 100 µM (inactive) | > 100 µM (inactive) | 51.8 µM (inactive) | 30.3 µM (inactive) | 75.7 µM (inactive) | 66.7 µM (inactive) | 85.1 µM (inactive) | > 100 µM (inactive) | 39.1 µM (inactive) | 56.1 µM (inactive) | 47.9 µM (inactive) | 50.1 µM (inactive) | > 100 µM (inactive) | 34.6 µM (inactive) | 48.2 | > 100 µM (inactive) | 35.4 µM (inactive) | > 100 µM (inactive) | > 100 µM (inactive) |
| c1ccc(CSc2nc(N3CCCCC3)c3cn[nH]c3n2)cc1 | 21.9 µM (inactive) | 17.3 µM (inactive) | 16.6 µM (inactive) | 14.7 µM (inactive) | 13.3 µM (inactive) | 36.1 µM (inactive) | 20.3 µM (inactive) | 16.5 µM (inactive) | 29.6 µM (inactive) | 17 µM (inactive) | 20.7 µM (inactive) | 16.1 µM (inactive) | 18 µM (inactive) | 16.3 µM (inactive) | 44 µM (inactive) | 33.2 | 61.2 µM (inactive) | 25.3 µM (inactive) | 15.4 µM (inactive) | 21 µM (inactive) |
| CC(/C=C/C(=O)NO)=C\C(C)C(=O)c1ccc(N(C)C)cc1 (stereo not given) | < 0.01 µM (active) | < 0.01 µM (active) | 0.0498 µM (active) | 0.0256 µM (active) | 0.207 µM (active) | 0.0409 µM (active) | 0.261 µM (active) | 0.424 µM (active) | 0.029 µM (active) | < 0.01 µM (active) | 0.0244 µM (active) | 0.0251 µM (active) | 0.0614 µM (active) | 0.0184 µM (active) | < 0.01 µM (active) | 0.0313 | < 0.01 µM (active) | < 0.0112 µM (active) | 0.0512 µM (active) | < 0.01 µM (active) |
| NNC(=O)CC(=O)Nc1ccc(Cl)cc1 | > 100 µM (inactive) | > 100 µM (inactive) | > 100 µM (inactive) | > 100 µM (inactive) | > 100 µM (inactive) | > 100 µM (inactive) | > 100 µM (inactive) | > 100 µM (inactive) | > 100 µM (inactive) | > 100 µM (inactive) | > 100 µM (inactive) | > 100 µM (inactive) | > 100 µM (inactive) | > 100 µM (inactive) | > 100 µM (inactive) | 34.7 | > 100 µM (inactive) | > 100 µM (inactive) | > 100 µM (inactive) | 34.1 µM (inactive) |
| COc1cc2nc3n(c(=O)c2cc1OC)CCCCC3 | > 100 µM (inactive) | > 100 µM (inactive) | > 100 µM (inactive) | > 100 µM (inactive) | > 100 µM (inactive) | > 100 µM (inactive) | > 100 µM (inactive) | > 100 µM (inactive) | > 100 µM (inactive) | > 100 µM (inactive) | > 100 µM (inactive) | > 100 µM (inactive) | > 100 µM (inactive) | > 100 µM (inactive) | 94.2 µM (inactive) | > 100 | > 100 µM (inactive) | > 100 µM (inactive) | > 100 µM (inactive) | > 100 µM (inactive) |
| O=C(NC(=O)c1ccccc1[N+](=O)[O-])Nc1ccc(Oc2ncc(Cl)cn2)c([N+](=O)[O-])c1 | 0.414 µM (active) | 0.202 µM (active) | 0.573 µM (active) | 0.0975 µM (active) | 0.0299 µM (active) | 21.9 µM (inactive) | 2.93 µM (inactive) | 31.5 µM (inactive) | 0.0456 µM (active) | 0.115 µM (active) | 0.0767 µM (active) | 0.373 µM (active) | 0.431 µM (active) | 0.281 µM (active) | 0.126 µM (active) | 0.0855 | 0.305 µM (active) | 0.0638 µM (active) | 0.0834 µM (active) | 0.895 µM (active) |
